In ChEMBL document CHEMBL1201862, “PubChem BioAssay data set” (2004):
The source made the active and inactive calls.

What was measured:
[1] = cells; format: functional, cell-based
[2] = molecular target: T1, Trace amine-associated receptor 1 (Homo sapiens, UniProt Q96RJ0); test: Fluorescence-based cell-based high throughput dose response assay to identify agonists of the human trace amine associated receptor 1 (TAAR1).; format: functional
T1 sequence (Q96RJ0 whole entry): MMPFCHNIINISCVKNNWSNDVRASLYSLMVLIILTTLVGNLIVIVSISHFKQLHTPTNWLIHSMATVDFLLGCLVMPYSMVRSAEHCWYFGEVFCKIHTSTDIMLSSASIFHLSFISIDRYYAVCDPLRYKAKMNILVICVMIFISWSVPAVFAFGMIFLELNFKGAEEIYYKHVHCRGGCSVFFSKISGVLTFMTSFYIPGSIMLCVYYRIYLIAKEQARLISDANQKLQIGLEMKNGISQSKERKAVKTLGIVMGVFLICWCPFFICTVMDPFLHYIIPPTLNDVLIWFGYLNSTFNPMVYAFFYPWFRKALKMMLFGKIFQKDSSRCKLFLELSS

[3] = molecular target: T1, Trace amine-associated receptor 1; test: Counterscreen for agonists of the human trace amine associated receptor 1 (hTAAR1): Fluorescence-based cell-based high throughput dose response assay to identify hTAAR1 agonist that also desensitize TAAR1 receptor response.; format: functional
[4] = cells; format: functional, cell-based; remark: listed apart in the source
[5] = molecular target: Nonstructural protein 1 (Influenza A virus, UniProt Q194T2); format: functional, Influenza A virus (A/California/07/2009(H1N1))
Nonstructural protein 1, sequence (Q194T2 whole entry): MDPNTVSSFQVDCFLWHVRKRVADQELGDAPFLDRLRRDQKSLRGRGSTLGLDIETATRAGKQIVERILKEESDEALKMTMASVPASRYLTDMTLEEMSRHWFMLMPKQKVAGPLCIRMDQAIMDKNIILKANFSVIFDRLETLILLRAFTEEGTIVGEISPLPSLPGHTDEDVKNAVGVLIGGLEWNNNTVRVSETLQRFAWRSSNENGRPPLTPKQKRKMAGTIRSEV

[6] = system: INS1; test: INS-1E survival protection against cytokine death – cell-based, luminescence, retest, dose response (AID 449756); format: functional; conditions: Rattus norvegicus;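 further: cell death triggered by IL-1 beta plus TNF-alpha plus IFN-gamma mixture; protective hits raise ATP signal compared with cytokine alone wells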
[7] = molecular target: Paired box protein Pax-8 (Homo sapiens, UniProt Q06710); test: PAX8 transcriptional activity inhibition in RMG-I – RMG-I cells, luciferase, cherry-pick, dose response (AID 687027); format: functional, cell-based;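 further: luciferase reporter driven by Pax8 target thyroperoxidase promoter measured by SteadyGlo luminescence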
Paired box protein Pax-8, sequence (Q06710 whole entry): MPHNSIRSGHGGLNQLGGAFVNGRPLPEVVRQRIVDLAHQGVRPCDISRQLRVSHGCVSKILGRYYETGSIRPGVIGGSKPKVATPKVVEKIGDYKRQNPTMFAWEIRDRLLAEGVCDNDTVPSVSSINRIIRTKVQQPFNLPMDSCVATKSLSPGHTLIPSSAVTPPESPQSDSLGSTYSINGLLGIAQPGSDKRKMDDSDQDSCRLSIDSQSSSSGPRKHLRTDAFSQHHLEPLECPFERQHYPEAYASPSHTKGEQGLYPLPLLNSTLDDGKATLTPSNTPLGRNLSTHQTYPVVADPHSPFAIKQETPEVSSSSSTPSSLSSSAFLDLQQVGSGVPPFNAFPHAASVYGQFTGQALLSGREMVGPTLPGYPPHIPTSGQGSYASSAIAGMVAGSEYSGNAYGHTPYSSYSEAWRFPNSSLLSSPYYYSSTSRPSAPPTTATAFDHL

[8] = general cell-killing toxicity readout – plate reader, dry powder samples, cytotoxicity control for PAX8 inhibitor project, dose response (AID 743021); format: functional, cell-based
[9] = molecular target: T2, fMet-Leu-Phe receptor (Homo sapiens, UniProt P21462); test: formyl peptide receptor binders – dose response (AID 519); format: functional
T2 sequence (P21462 whole entry): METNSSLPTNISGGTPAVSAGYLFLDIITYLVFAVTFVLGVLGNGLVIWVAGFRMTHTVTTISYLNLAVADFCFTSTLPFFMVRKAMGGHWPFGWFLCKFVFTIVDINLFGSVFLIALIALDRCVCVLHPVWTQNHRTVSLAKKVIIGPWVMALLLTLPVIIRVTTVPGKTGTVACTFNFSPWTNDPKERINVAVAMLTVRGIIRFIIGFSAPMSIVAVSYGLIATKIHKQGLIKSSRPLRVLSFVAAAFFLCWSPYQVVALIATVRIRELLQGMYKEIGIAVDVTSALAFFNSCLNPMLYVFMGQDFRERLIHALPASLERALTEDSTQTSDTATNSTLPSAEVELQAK

[10] = molecular target: T3, Oxysterols receptor LXR-beta (Homo sapiens, UniProt P55055); format: functional, cell-based;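 further: Cell-based luminescence dose-response assay of agonist activity at LXR, run as a confirmatory counterscreen to a daf-12 agonist screen; HEK293 cells with Gal4-LXR fusion and GAL4-driven luciferase reporter; agonist potency from rising luciferase signal of a Gal4-LXR reporter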
T3 sequence (P55055 whole entry): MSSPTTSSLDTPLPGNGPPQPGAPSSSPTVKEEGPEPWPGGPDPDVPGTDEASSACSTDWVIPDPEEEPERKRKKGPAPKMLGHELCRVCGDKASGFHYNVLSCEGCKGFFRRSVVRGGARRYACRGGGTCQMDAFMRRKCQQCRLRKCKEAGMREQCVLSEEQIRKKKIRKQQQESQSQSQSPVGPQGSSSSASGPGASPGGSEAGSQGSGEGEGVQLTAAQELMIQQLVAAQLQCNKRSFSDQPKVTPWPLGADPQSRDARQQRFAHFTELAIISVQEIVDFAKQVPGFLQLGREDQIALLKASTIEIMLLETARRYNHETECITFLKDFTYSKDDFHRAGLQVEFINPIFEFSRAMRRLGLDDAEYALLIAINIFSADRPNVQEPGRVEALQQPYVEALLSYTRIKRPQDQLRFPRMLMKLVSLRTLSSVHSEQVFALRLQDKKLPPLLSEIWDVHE

[11] = cells

For O=C(O)/C=C/C(=O)NCCCc1ccccc1, the IC50 [1] was > 29.9 µM (inactive), the EC50 [2] was 7.06 µM (active) and the IC50 [3] was > 29.9 µM (inactive). For the same compound, the EC50 [4] was > 29.9 µM (inactive).
For COc1cc(N/N=C/c2ccccc2O)ncn1, the IC50 [5] was 5.73 µM (active), the AC50 [6] was 3.67 µM (active) and the IC50 [1] was > 29.9 µM (inactive). For the same compound, the EC50 [2] was > 29.9 µM (inactive), the IC50 [3] was 6.63 µM (active) and the EC50 [4] was > 29.9 µM (inactive).
For O=C(Nc1ccc(C(F)(F)F)cc1)N1C[C@@H]2N[C@H](C1)[C@H]2c1ccc(-c2cccc(F)c2)cc1, the AC50 [7] was 13.2 µM (active) and the AC50 [8] was 27.9 µM (active).
For CCOC(=O)c1c(C)[nH]c(/C=N/c2ccccc2)c1O, the Ki [9] was > 66.7 µM (inactive).
In the case of O=C1C(/C=N/Cc2ccco2)=C(O)c2ccccc21, the EC50 [10] was > 67.5 µM (inactive) and the EC50 [11] was > 67.5 µM (inactive).
